Experimental data from patent publication US20210322426A1, “METHODS OF TREATING CANCER WITH PI3K ALPHA INHIBITORS AND METFORMIN” (Genentech, Inc., priority 2018, published 2021).
Where two headings read alike, the source gives them in different places.

How the values were obtained:
mutant p110 alpha = experiment: degradation of mutant p110 alpha (nonclinical studies)
[1] = system: tumor cells bearing mutant PI3K; conditions: mutant PI3K over wild type (WT) PI3K cells; cited from earlier work
[2] = target: Class I PI3K alpha isoform (Homo sapiens, UniProt P42336); conditions: PI3K alpha versus PI3K beta, delta and gamma isoforms; cited from earlier work
Chain of Class I PI3K alpha isoform (P42336 whole entry, canonical isoform): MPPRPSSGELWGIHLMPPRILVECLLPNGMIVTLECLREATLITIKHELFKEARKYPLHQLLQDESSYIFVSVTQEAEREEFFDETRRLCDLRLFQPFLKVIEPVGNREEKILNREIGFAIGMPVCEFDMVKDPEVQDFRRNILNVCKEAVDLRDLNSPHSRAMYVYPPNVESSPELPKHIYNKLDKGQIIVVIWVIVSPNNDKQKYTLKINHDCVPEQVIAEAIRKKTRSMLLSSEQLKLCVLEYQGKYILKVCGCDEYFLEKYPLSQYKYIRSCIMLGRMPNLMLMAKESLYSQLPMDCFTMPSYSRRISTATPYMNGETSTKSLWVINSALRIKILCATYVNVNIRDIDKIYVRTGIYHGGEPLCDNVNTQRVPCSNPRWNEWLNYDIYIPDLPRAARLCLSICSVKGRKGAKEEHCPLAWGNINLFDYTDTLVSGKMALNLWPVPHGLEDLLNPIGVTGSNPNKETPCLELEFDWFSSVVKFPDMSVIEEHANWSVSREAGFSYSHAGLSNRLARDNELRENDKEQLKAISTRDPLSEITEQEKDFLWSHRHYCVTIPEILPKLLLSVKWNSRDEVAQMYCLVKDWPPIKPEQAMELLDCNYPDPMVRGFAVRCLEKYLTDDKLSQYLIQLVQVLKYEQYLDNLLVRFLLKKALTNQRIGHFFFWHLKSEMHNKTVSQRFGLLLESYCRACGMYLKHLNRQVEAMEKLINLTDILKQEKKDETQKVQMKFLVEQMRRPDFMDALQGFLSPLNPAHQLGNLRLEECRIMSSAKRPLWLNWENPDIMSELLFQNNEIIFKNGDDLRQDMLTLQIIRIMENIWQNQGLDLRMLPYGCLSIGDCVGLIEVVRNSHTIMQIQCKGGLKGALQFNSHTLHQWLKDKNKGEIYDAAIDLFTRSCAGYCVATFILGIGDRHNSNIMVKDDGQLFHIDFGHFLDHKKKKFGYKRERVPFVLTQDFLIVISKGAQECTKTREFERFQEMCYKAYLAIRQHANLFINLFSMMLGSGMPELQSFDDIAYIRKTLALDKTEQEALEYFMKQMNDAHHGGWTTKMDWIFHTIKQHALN
Chain of Class I PI3K alpha isoform (P27986 whole entry partner, canonical isoform): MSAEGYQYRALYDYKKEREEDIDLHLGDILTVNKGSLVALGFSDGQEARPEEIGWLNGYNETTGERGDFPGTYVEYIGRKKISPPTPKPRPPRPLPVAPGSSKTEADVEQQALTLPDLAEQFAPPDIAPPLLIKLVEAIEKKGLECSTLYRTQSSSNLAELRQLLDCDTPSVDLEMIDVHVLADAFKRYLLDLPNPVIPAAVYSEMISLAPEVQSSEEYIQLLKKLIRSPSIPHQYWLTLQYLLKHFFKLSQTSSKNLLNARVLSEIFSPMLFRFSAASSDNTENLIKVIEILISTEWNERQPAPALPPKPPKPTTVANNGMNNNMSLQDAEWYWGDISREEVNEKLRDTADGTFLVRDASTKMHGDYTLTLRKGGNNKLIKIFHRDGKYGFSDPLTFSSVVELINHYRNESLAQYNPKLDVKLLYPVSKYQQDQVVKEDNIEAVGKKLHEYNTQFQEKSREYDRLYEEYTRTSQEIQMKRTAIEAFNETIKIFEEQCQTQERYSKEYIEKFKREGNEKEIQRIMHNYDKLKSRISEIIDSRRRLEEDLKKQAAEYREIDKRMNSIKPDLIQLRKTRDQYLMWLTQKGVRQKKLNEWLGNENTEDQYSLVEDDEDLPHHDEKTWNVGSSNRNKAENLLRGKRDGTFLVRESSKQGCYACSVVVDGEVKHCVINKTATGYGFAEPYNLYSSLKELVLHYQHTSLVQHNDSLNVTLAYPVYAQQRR

[3] = system: PIK3CA-mutant breast cancer cell lines; experiment: proliferation and apoptosis of PIK3CA-mutant breast cancer cell lines; type: cell-based; conditions: nonclinical studies
[4] = system: PI3K-pathway markers pAKT, pPRAS40, pS6; experiment: downstream PI3K-pathway markers (pAKT, pPRAS40, pS6)
[5] = system: human breast xenograft models harboring PIK3CA mutations; experiment: tumor growth in human breast xenograft models harboring PIK3CA mutations; type: in vivo
[6] = system: patients with HR+/HER2- breast cancer; conditions: in combination with letrozole; cited from earlier work
[7] = system: patients with HR+/HER2- breast cancer; conditions: in combination with fulvestrant; cited from earlier work

SMILES	degradation of mutant p110 alpha (mutant p110 alpha)	potency in mutant PI3K tumor cells over wild type PI3K cells [1]	fold less potent biochemical inhibition for other Class I PI3K isoforms [2] [fold]	apoptosis of PIK3CA-mutant breast cancer cell lines [3]	proliferation of PIK3CA-mutant breast cancer cell lines [3]	downstream PI3K-pathway markers [4]	tumor growth in xenograft models [5]	patients requiring 1 dose reduction of palbociclib [6] [%]	patients with cycle delays [6] [%]	patients with dose holds [6] [%]	patients requiring 1 dose reduction of palbociclib [7] [%]	patients with cycle delays [7] [%]	patients with dose holds [7] [%]
C[C@H](Nc1ccc2c(c1)OCCn1cc(N3C(=O)OC[C@H]3C(F)F)nc1-2)C(N)=O [GDC-0077, (S)-2-((2-((S)-4-(difluoromethyl)-2-oxooxazolidin-3-yl)-5,6-dihydrobenzo[f]imidazo[1,2-d][1,4]oxazepin-9-yl)amino)propanamide]	specifically degrades mutant p110 alpha	increased potency	> 300	induces apoptosis	inhibits proliferation	reduces downstream PI3K-pathway markers	inhibits tumor growth						
CC(=O)c1c(C)c2cnc(Nc3ccc(N4CCNCC4)cn3)nc2n(C2CCCC2)c1=O [palbociclib, 6-acetyl-8-cyclopentyl-5-methyl-2-(5-(piperazin-1-yl)pyridin-2-ylamino)pyrido[2,3-d]pyrimidin-7(8H)-one]								36	68	70	34	36	54
